Activity calls are given as the source filed them. How the calls were made is not given here.
What was measured:
[1] = biological target: Endothelial PAS domain-containing protein 1 (Homo sapiens) (UniProt Q99814); assay: potency against HIF reporters across cell lines – luminescence, panel, selectivity assay for HIF-2a inhibitor project, dose response (AID 651581); conditions: human cell HIF reporter
[2] = biological target: Hypoxia-inducible factor 1-alpha (Homo sapiens) (UniProt Q16665); assay: as above; conditions: human cell HIF reporter, HIF-1a
Chain of Hypoxia-inducible factor 1-alpha (Homo sapiens) (Q16665 whole entry, looked up): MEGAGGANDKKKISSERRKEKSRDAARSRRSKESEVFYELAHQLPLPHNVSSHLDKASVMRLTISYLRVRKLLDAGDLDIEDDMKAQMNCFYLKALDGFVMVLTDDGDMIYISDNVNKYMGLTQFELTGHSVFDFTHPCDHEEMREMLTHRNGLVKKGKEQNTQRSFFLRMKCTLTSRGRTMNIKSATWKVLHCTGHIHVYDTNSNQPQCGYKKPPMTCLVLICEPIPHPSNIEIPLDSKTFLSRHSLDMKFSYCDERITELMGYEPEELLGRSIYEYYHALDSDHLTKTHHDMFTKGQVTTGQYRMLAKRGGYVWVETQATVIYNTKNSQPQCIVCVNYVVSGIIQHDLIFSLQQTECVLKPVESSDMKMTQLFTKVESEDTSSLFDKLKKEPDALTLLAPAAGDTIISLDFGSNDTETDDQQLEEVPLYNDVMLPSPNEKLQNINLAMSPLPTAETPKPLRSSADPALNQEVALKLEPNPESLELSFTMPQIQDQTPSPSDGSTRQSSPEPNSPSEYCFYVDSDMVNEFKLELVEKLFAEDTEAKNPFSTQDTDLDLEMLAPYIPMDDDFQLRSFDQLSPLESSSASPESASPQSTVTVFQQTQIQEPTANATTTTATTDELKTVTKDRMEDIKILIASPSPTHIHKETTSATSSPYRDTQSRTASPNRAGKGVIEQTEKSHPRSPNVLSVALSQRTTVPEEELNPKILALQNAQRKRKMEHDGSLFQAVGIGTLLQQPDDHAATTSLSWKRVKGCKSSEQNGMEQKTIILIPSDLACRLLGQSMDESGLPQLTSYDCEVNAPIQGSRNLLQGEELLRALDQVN

Row | Compound | IC50 ([1]; HIF-2a PANC, mean of runs) | IC50 ([1]; HIF-2a PANC, run 1) | IC50 ([1]; HIF-2a PANC, run 2) | IC50 ([1]; HIF-2a, mean of runs) | IC50 ([1]; HIF-2a, run 1) | IC50 ([1]; HIF-2a, run 2) | IC50 ([2]; run 1) | IC50 ([2]; run 2) | IC50 ([2]; mean of runs)
1 | O=C(O)c1cccc(C(=O)Nc2cccc(NC(=O)C3CCCO3)c2)c1 (stereo unspecified) | > 99 µM (inactive) | > 99 µM | > 99 µM | inactive | 30.8 µM | 26.9 µM | > 99 µM | > 99 µM | 
2 | O=C(Nc1ccc(NC(=S)NC(=O)c2ccco2)cc1)c1ccc(Br)cc1 | > 99 µM (inactive) | > 99 µM | > 99 µM | 1.02 µM | 1.18 µM | 0.871 µM | 0.639 µM | > 99 µM | 
3 | Nc1ccc(-c2nnn(CC(=O)N3CCCCC3)n2)cc1 |  | > 99 µM | 33.3 µM | inactive | 18.3 µM | 17 µM | 15.7 µM | > 99 µM | 
4 | Cc1csc(NC(=O)c2cn3ccccc3n2)n1 | 17.5 µM | 20.3 µM | 14.8 µM | 7.98 µM | 7.58 µM | 8.38 µM | 11.9 µM | 12.5 µM | inactive
5 | CCOC(=O)Cc1csc(NC(=S)NC(=O)c2ccc([N+](=O)[O-])cc2)n1 | inactive | 35.8 µM | 34.5 µM | 5.93 µM | 5.83 µM | 6.03 µM | 55.3 µM | 46.8 µM | 51 µM
6 | O=C(Nc1ccc(NC(=O)c2ccco2)cc1)c1ccc2c(c1)OCCO2 | 11.2 µM | 10.1 µM | 12.4 µM | 7.76 µM | 8.03 µM | 7.48 µM | > 99 µM | 86 µM | 
7 | CCOC(=O)CNC(=O)CSc1nnc(NC(=O)c2ccc(C)cc2)s1 | inactive | 63.2 µM | 25.5 µM | 9.66 µM | 11.8 µM | 7.56 µM | > 99 µM | > 99 µM | 
8 | O=C(O)c1ccc2nc(-c3ccccc3)sc2c1 | 11.4 µM | 12.7 µM | 10.2 µM |  | < 30 µM | > 99 µM | 26.6 µM | 22.9 µM | inactive
9 | Nc1ccc(-c2cc3ccccc3c(=O)o2)cc1 | 0.7 µM | 0.782 µM | 0.618 µM | < 1 µM | < 1 µM | < 1 µM | 0.423 µM | > 99 µM | 
10 | CN(C)c1ccc(Nc2nc(N)c3ccccc3n2)cc1 | 17.9 µM | 24.8 µM | 11 µM | < 30 µM (inactive) | < 30 µM | < 30 µM | 13.7 µM | < 30 µM | 
11 | CNC(=O)NC(=O)COC(=O)CCCSc1nc2ccccc2s1 | 10.7 µM | 15.8 µM | 5.59 µM | 4.96 µM | 5.6 µM | 4.32 µM | 6.15 µM | 8.11 µM | inactive
12 | Cc1nc(SCc2ccc(C(=O)O)cc2)nc2c1CCCC2 | inactive | 20.8 µM | 23.6 µM | 4.53 µM | 4.31 µM | 4.75 µM | 12.3 µM | 7.67 µM | inactive
13 | Cc1ccc(NC(=O)c2cc(N3C(=O)C=CC3=O)ccc2N2CCOCC2)cc1 | > 99 µM (inactive) | > 99 µM | > 99 µM | 9.77 µM | 9.64 µM | 9.9 µM | 64.3 µM | > 99 µM | 
14 | Cc1nc2cc(-c3ccccc3)nn2c(C)c1CCC(=O)NC(C)c1ccc2c(c1)OCCO2 (stereo unspecified) | 2.4 µM | 2.9 µM | 1.91 µM | 3.26 µM | 3.59 µM | 2.92 µM | 3.84 µM | 44.7 µM | 24.3 µM

Reference: PubChem BioAssay AID651581 (Sanford-Burnham Center for Chemical Genomics, 2012)
